Values of other authors, collected in US20240279338A1, “Combination Treatment of Cancer” (Ares Trading S.A., priority 2021, published 2024).

Target: T1, A3 receptor (Homo sapiens, UniProt P0DMS8)
T1 sequence (P0DMS8 1-318): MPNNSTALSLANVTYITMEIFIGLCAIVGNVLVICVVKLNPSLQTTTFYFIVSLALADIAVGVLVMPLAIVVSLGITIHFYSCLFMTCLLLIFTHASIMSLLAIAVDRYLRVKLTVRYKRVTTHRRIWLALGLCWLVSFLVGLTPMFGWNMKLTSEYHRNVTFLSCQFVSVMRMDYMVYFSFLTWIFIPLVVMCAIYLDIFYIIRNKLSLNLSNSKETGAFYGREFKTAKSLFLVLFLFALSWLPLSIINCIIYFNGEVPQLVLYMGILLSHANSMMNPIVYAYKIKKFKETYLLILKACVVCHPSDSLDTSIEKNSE
Conditions: cited from earlier work

Nc1ncnc2c1ncn2[C@@H]1O[C@H](CO)[C@@H](O)[C@H]1O [adenosine]
adenosine sensitivity (affinity) of receptor: 100 nM
